Experimental data: patent EP0513703A2, “Carbamate esters of eseroline having anticholinesterase activity, a process for their preparation and relative pharmaceutical compositions containing them as the active principle” (priority 1991, dated 1992)
Where two headings read alike, the source gives them in different places.

Columns and labels:
[1] = test system: mice (Swiss strain); assay: Acute toxicity, LD50 by oral route in mice (class E derivatives); format: in vivo; conditions: mouse, suspension in 2 % carboxymethylcellulose, observation 7 days
Description: (§1) The letal doses 50 (LD50) by oral route (suspension in 2 % carboxymethylcellulose) are reported herinbelow: TABLE 9

[2] = test system: acetylcholinesterase; format: in vivo, Wistar male rats; conditions: rat
[3] = test system: mouse; assay: Spontaneous motility, Dews method modified according to Carminati (class E derivatives); format: in vivo; conditions: mouse (Strain Swiss)
Description: (§2) The Dews method was used, modified according to Carminati (Arch. int. Pharmacodyn. et Thér 181, 68,1969).

[4] = test system: SWISS male mice; assay: Electroencephalographic activity (class E derivatives); format: in vivo; conditions: 0.4 mg/kg/os, in the course of the successive 30 minutes
[5] = Pharmacokinetics, plasma level by HPLC (MS001); format: in vivo, Wistar male rats; conditions: rat, 0.5 mg/kg/os
Experimental: The presence of MS001 in plasma was detected by HPLC.
With the optimized method the detection limit was of 0.20 µg per ml of plasma.

[6] = Acute toxicity, LD50 by oral route in mice (class A derivatives); format: in vivo; conditions: both sexes, Swiss, in vivo, mouse, suspension in 2 % carboxymethylcellulose, observation 7 days, read-out: LD50 per os
Description: The letal doses 50 (LD50) by oral route (suspension in 2 % carboxymethylcellulose) are reported herinbelow: TABLE 1

[7] = test system: mouse; assay: Spontaneous motility, Dews method modified according to Carminati (class A derivatives); format: in vivo; conditions: mouse (Swiss), minimum doses
Description: as §2

[8] = test system: SWISS mice; assay: Antagonism of the central stimulating (hypermotor) effect of scopolamine (class A derivatives); format: in vivo; conditions: given 30 minutes before scopolamine 1 mg/kg s.c.
Description: (§3) At this dose the substance provoked in all the animals a considerable increase (80-100%) of the spontaneous motility, studied according to the above mentioned method.

[9] = test system: mice; assay: Toxicity, LD50 by intraperitoneal route (class B derivatives); format: in vivo; conditions: death within 24 hours of 50% of the tested animals
Description: In the following table reported are LD50 values determined on mice for the listed compounds and compared with that of physostigmine administered by the same (intraperitoneal) route.

[10] = test system: mouse; assay: Toxicity, LD50 by intraperitoneal route (class C derivatives); format: in vivo
Description: In the following table reported are the LD50 values determined on mouse for the compounds listed and compared with the corresponding LD50 value for physostigmine, administered by the same (intraperitoneal) route.

[11] = Acute toxicity, LD50 by oral route in mice (class D derivatives); format: in vivo; conditions: both sexes, Swiss, in vivo, mouse, suspension in 2 % carboxymethylcellulose, observation 7 days, read-out: LD50 per os
Description: The letal doses 50 (LD50) by oral route (suspension in 2 % carboxymethylcellulose) are reported hereinbelow: TABLE 6

[12] = test system: mouse; assay: Spontaneous motility, Dews method modified according to Carminati (class D derivatives); format: in vivo; conditions: mouse (Swiss)
Description: as §2

[13] = test system: SWISS mice; assay: Antagonism of the central stimulating (hypermotor) effect of scopolamine (class D derivatives); format: in vivo; conditions: given 30 minutes before scopolamine 1 mg/kg s.c.
Description: as §3

[14] = Acute toxicity, LD50 by oral route in mice (class E derivatives); format: in vivo; conditions: both sexes, Swiss, in vivo, mouse, suspension in 2 % carboxymethylcellulose, observation 7 days, read-out: LD50 per os
Description: as §1

[15] = test system: SWISS mice; assay: Antagonism of the central stimulating (hypermotor) effect of scopolamine (class E derivatives); format: in vivo; conditions: given 30 minutes before scopolamine 1 mg/kg s.c.
Description: At this dose the substance provoked a considerable increase (80-100%) of the spontaneous motility, studied according to the above mentioned method.

[16] = Acute toxicity, LD50 by oral administration in mice (class F derivatives); conditions: both, Swiss, mouse, in vivo, po
[17] = acetylcholinesterase inhibition 20 minutes after oral administration, limits in brackets

CN1CC[C@@]2(C)c3cc(OC(=O)NCCCCCCCCNC(=O)Oc4ccc5c(c4)[C@]4(C)CCN(C)[C@@H]4N5C)ccc3N(C)[C@@H]12 [MS001, (3a S-cis) - 1,2,3,3a,8,8a hexahydro - 1,3a,8 - trimethyl pyrrol [2,3-b]-indol-5-ol-1,8-octandicarbamate ester]
LD50 per os [1]: 51.40 ± 5.48 mg/kg
INHIBITION % OF ACETYLCHOLINESTERASE (AchE) after 60 minutes brain ([2]; 0.2 mg/kg/OS): 43.41 ± 3.25%
INHIBITION % OF ACETYLCHOLINESTERASE (AchE) after 60 minutes serum ([2]; 0.2 mg/kg/OS): 36.22 ± 6.20%
INHIBITION % OF ACETYLCHOLINESTERASE (AchE) after 120 minutes brain ([2]; 0.2 mg/kg/OS): 19.6 ± 3.41%
INHIBITION % OF ACETYLCHOLINESTERASE (AchE) after 120 minutes serum ([2]; 0.2 mg/kg/OS): 23.12 ± 5.28%
ED50 (mg/kg/os) brain [2, 17]: 0.17 (0.12 - 0.23) mg/kg/os
ED50 (mg/kg/os) serum [2, 17]: 0.18 (0.12 - 0.26) mg/kg/os
oral dose causing a significant decrease of the spontaneous motility [3]: 0.25 mg/kg
decrease of the spontaneous motility (on average) ([3]; oral, 0.25 mg/kg): ~-25%
modifications of the electroencephalogram [4]: increase of the amplitude and a decrease of the frequency of the electroencephalogram
concentration in plasma after 15 minutes [5]: 10.64 ± 6.26 µg/mL
concentration in plasma after 120 minutes [5]: 32.12 ± 6.41 µg/mL
concentration in plasma after twelve hours [5]: 11.31 ± 3.18 µg/mL
maximum peak in plasma [5]: 41.24 ± 8.36 µg/mL
time of the maximum peak in plasma [5]: 90 '

CNC(=O)Oc1ccc2c(c1)[C@]1(C)CCN(C)[C@@H]1N2C [Physostigmine, physostigmine, reference compound]
LD50 at 7 days [6]: 4.37 ± 1.22 mg/kg
oral dose causing a significant decrease of the spontaneous motility [7]: 0.6 mg/kg
dose completely undoing the hypermotor effect of scopolamine [8]: 0.4 mg/kg/os
LD50 (mg/kg i.p.) [9]: 0.6 mg/kg i.p.
LD50 (mg/kg i.p) [10]: 0.6 mg/kg i.p
LD50 at 7 days [11]: 4.12 ± 0.89 mg/kg
oral dose causing a significant decrease of the spontaneous motility [12]: 0.6 mg/kg
dose completely undoing the hypermotor effect of scopolamine [13]: 0.4 mg/kg/os
LD50 at 7 days [14]: 3.78 ± 0.86 mg/kg
INHIBITION % OF ACETYLCHOLINESTERASE (AchE) after 60 minutes brain ([2]; in vivo, 0.4 mg/kg): 22.3 ± 5.12%
INHIBITION % OF ACETYLCHOLINESTERASE (AchE) after 60 minutes serum ([2]; in vivo, 0.4 mg/kg): 18.41 ± 4.16%
INHIBITION % OF ACETYLCHOLINESTERASE (AchE) after 120 minutes brain ([2]; in vivo, 0.4 mg/kg): 2.41 ± 1.33%
INHIBITION % OF ACETYLCHOLINESTERASE (AchE) after 120 minutes serum ([2]; in vivo, 0.4 mg/kg): 3.44 ± 1.21%
ED50 (mg/kg/os) brain ([2]; in vivo, po): 0.38 (0.24 - 0.60) mg/kg/os
ED50 (mg/kg/os) serum ([2]; in vivo, po): 0.37 (0.23 - 0.59) mg/kg/os
oral dose causing a significant decrease of the spontaneous motility [3]: 0.6 mg/kg
dose completely undoing the hypermotor effect of scopolamine [15]: 0.4 mg/kg/os
LD50 [16]: 4.5 mg/kg
